Reference: patent EP0596449A2, “Serotonin receptor antagonists for treating myocardial ischemia” (E.R. SQUIBB & SONS, INC., priority 1992, dated 1994)
“Also recorded” adds a separate entry of the source. Marks after values point to notes of the source that are not given here.

What was measured:
[1] = test system: globally ischemic rat hearts; test: Global ischemia (25 min) and reperfusion (30 min) in isolated perfused rat hearts, 5HT2 antagonists; conditions: for EC25: Rattus norvegicus, drug given 10 minutes before global ischemia, read-out: EC25 (concentration which increased the time to contracture 25% above vehicle group values)
Experimental: (§1) To determine the effect of serotonin receptor agonists and antagonists, male Sprague-Dawley rats (450-550 g) were prepared as described below. The rats were anesthetized using 100 mg/kg sodium pentobarbital (i.p.). They were intubated and then treated with i.v. heparin (1000 U/kg). While being mechanically ventilated, their hearts were perfused in situ via retrograde cannulation of the aorta. The hearts were then excised and […] moved to a Langendorff apparatus where they were perfused with Krebs-henseleit bicarbonate buffer solution ((mM): 112 NaCI, 25 NaHC03, 5 KCI, 1.2 MgS04, 1 KH2P04, 1.25 CaC12, 2 pyruvate and 11.5 dextrose bubbled with 95% 02 - 5% C02) at a constant perfusion pressure (85 mm Hg). A water-filled latex balloon attached to a metal cannula was then inserted into the left ventricle and connected to a Statham pressure transducer for measurement of left ventricular pressure. The hearts were allowed to equilibrate for 15 min, at which time end diastolic pressure (EDP) was adjusted to 5 mm Hg and this balloon volume was maintained for the duration of the experiment. Pre-ischemia or pre-drug function, heart rate and coronary flow (extracorporeal electromagnetic flow probe) were then measured. Left ventricular developed pressure (LVDP) was calculated from the difference between left ventricular peak systolic pressure and EDP. Cardiac temperature was maintained throughout the experiment by submerging the hearts in 37 ° C buffer which was allowed to accumulate in a stoppered, heated chamber.
The model of global ischemia in isolated rat hearts was designed such that any protective effects observed are generally due to a direct cardioprotective effect and not to effects on cornonary or peripheral vascular tone. Also, because the hearts are perfused with an oxygenated buffer solution, platelets or the normal components of an inflammatory response are probably not important mediators of the ischemic/reperfusion injury observed in this model. […] Agents which exert their protective effects either through their effects on the peripheral or coronary vasculature such as nitrates or agents which act on blood or act on some component of the inflammatory response such as thromboxane A2 receptor antagonists are generally ineffective in this model.
The hearts were divided into the following groups: 1. Vehicle (0.1% DMSO) treatment beginning 10 minutes before the onset of ischemia (n = 8). 2. 0.3-10 µM ketanserin treatment beginning 10 minutes before the onset of ischemia (n = 4-5 per group). 3. 10 µM ketanserin given only during reperfusion (n = 4). 4. 0.1-10 µM cinanserin treatment beginning 10 minutes before global ischemia (n = 4-10). 5. 1-10 µM LY 53857 treatment beginning 10 minutes before the onset of ischemia (n = 4 per group). After 10 minutes of vehicle or drug pretreatment, the hearts were subjected to 25 minutes of total global ischemia which was initiated by shutting off the perfusate flow. Reperfusion was begun (without drug except in the case of group 3 above) and allowed to continue for 30 minutes. At this time, final measurements of EDP, LVDP and coronary flow were obtained. Cumulative LDH relase was measured in the reperfusate and was used as the index of cellular and membrane viability. In all hearts, the time to contracture during ischemia was measured and used as an index of cardioprotection during ischemia. Time to contracture is defined as the time (minutes) necessary for the first 5 mm Hg increase in EDP to occur during global ischemia. The data were expressed as the percent change in time to contracture from vehicle.

[2] = test system: globally ischemic, isolated rat hearts; test: Effect of 5HT, alone or with 5HT2 antagonist, on time to contracture and pre-ischemic function in isolated rat hearts; conditions: for Coronary Flow / HR / LVDP: pre-ischemic
Experimental: To determine the effect of serotonin receptor agonists and antagonists, male Sprague-Dawley rats (450-550 g) were prepared as described below. The rats were anesthetized using 100 mg/kg sodium pentobarbital (i.p.). They were intubated and then treated with i.v. heparin (1000 U/kg). While being mechanically ventilated, their hearts were perfused in situ via retrograde cannulation of the aorta. […] A water-filled latex balloon attached to a metal cannula was then inserted into the left ventricle and connected to a Statham pressure transducer for measurement of left ventricular pressure. […] Pre-ischemia or pre-drug function, heart rate and coronary flow (extracorporeal electromagnetic flow probe) were then measured. Left ventricular developed pressure (LVDP) was calculated from the difference between left ventricular peak systolic pressure and EDP. Cardiac temperature was maintained throughout the experiment by submerging the hearts in 37 ° C buffer which was allowed to accumulate in a stoppered, heated chamber. In another series of hearts, the effect of 5HT on the severity of ischemia was determined. […] Vehicle (0.1% DMSO) given 10 minutes before ischemia (n = 5). The hearts were subjected to global ischemia as described above and time to contracture determined. Reperfusion function and LDH release were not determined in this group.

alpha, Adrenoceptors = test: Methoxamine-induced contraction in rat aortic rings (alpha1 blocking potency); conditions: 45 minute incubation; Figure 5A
Experimental: In order to determine the alpha1 blocking potency of cinanserin, ketanserin and LY 53857, their effect on methoxamine induced aortic constriction was determined. Male Sprague-Dawley rats were sacrificed using C02. Aortic rings (3 mm in width) were cut, denuded of endothelium by gently rolling the rings on moistened filter paper, and mounted on stainless steel hooks in 20 mL muscle chambers containing oxygenated physiological salt solution (PSS) of the following composition (in mM): 118.4 NaCI, 4.7 KCI, 1.2 MgS04, 1.2 KH2P04, 1.9 CaC12, 25.0 NaHC03, 10.1 D-glucose, and 0.01 mM Na2EDTA maintained at 37 °C. The hooks were connected to Grass FT03C transducers for recording of isometric force development. The rings were stretched to 2 g preload during the equilibration period. During equilibration the rings were periodically stimulated with 24 mM KCI to determine contractility. The effectiveness of endothelial removal was confirmed by the absence of relaxation by 1 µM acetylcholine of a contraction in response to 0.01 µM phenylephrine.
Various concentrations of the test compounds were then added to individual baths and allowed a 45 minute incubation before cumulative concentration response curves for methoxamine (1 nM-30 /1.M) were obtained. Solvent controls were run in parallel. […]

[3] = test system: globally ischemic rat hearts; test: Parachlorophenylalanine pretreatment of rats, then global ischemia/reperfusion of the isolated hearts; conditions: for time to contracture: parachlorophenylalanine pretreatment i.p., compared to vehicle, p<0.05, Figure 4
Experimental: as §1
To determine if endogenous 5HT is mediating a pro-ischemic effect in isolated hearts, rats, prepared as described below were treated with parachlorophenylalanine. Parachlorophenylalanine depletes brain and peripheral 5HT by inhibition of tryptophan hydroxylase, the rate limiting step in 5HT synthesis. […] Male Sprague-Dawely rats (450-550 g) were injected with i.p. 105 mg/kg parachlorophenylalanine (n = 10) or its vehicle (water, n = 6) on three consecutive days. On the fourth day, the rats were anesthetized with 100 mg/kg sodium pentobarbital. The hearts were then excised and moved to an isolated heart apparatus as described above. The hearts were then subjected to 25 minutes to global ischemia and 30 minutes of reperfusion. Time to contracture, recovery of contractile function, coronary flow and cumulative LDH release were measured as described above.

[4] = 30 μM 5HT + 1 μM Cinanserin, Post-Drug
[5] = 30 μM 5HT + 1 μM Cinanserin, Pre-Drug
[6] = i.p. 105 mg/kg on three consecutive days, 30 Min. Post-Ischemia
[7] = i.p. 105 mg/kg on three consecutive days, Pre-Ischemia

CC(O)C(C)OC(=O)C1CC2c3cccc4c3c(cn4C(C)C)CC2N(C)C1 (stereo not drawn) [LY 53857] was tested, and the “Coronary Flow” value ([1]; 1 µM, 30 Min Post-Reperfusion) was 12±1^a mL/min/g, the HR ([1]; 1 µM, 30 Min Post-Reperfusion) was 230±25 beats/min and the LVDP ([1]; 1 µM, 30 Min Post-Reperfusion) was 23±5^a mmHg. For the same compound, the “Coronary Flow” value ([1]; 1 µM, Pre-Ischemia, Post-Drug) was 15 ± 1 mL/min/g, the HR ([1]; 1 µM, Pre-Ischemia, Post-Drug) was 257±6 beats/min and the LVDP ([1]; 1 µM, Pre-Ischemia, Post-Drug) was 132±6 mmHg. The “Coronary Flow” value ([1]; 1 µM, Pre-Ischemia, Pre-Drug) was 17 ± 1 mL/min/g, the HR ([1]; 1 µM, Pre-Ischemia, Pre-Drug) was 270±5 beats/min and the LVDP ([1]; 1 µM, Pre-Ischemia, Pre-Drug) was 141±4 mmHg. For the same compound, the “Coronary Flow” value ([1]; 3 µM, 30 Min Post-Reperfusion) was 13±1^a mL/min/g, the HR ([1]; 3 µM, 30 Min Post-Reperfusion) was 240±13 beats/min and the LVDP ([1]; 3 µM, 30 Min Post-Reperfusion) was 73±7^a,b mmHg. The “Coronary Flow” value ([1]; 3 µM, Pre-Ischemia, Post-Drug) was 17 ± 1 mL/min/g, the HR ([1]; 3 µM, Pre-Ischemia, Post-Drug) was 265±8 beats/min and the LVDP ([1]; 3 µM, Pre-Ischemia, Post-Drug) was 144±6 mmHg. The “Coronary Flow” value ([1]; 3 µM, Pre-Ischemia, Pre-Drug) was 17 ± 1 mL/min/g, the HR ([1]; 3 µM, Pre-Ischemia, Pre-Drug) was 274±5 beats/min and the LVDP ([1]; 3 µM, Pre-Ischemia, Pre-Drug) was 148±6 mmHg. The “Coronary Flow” value ([1]; 10 µM, 30 Min Post-Reperfusion) was 15 ± 3 mL/min/g, the HR ([1]; 10 µM, 30 Min Post-Reperfusion) was 250±4 beats/min and the LVDP ([1]; 10 µM, 30 Min Post-Reperfusion) was 86±6^a,b mmHg. The “Coronary Flow” value ([1]; 10 µM, Pre-Ischemia, Post-Drug) was 21 ± 3 mL/min/g, the HR ([1]; 10 µM, Pre-Ischemia, Post-Drug) was 252±12^a beats/min and the LVDP ([1]; 10 µM, Pre-Ischemia, Post-Drug) was 123±5 mmHg. For the same compound, the “Coronary Flow” value ([1]; 10 µM, Pre-Ischemia, Pre-Drug) was 20 ± 3 mL/min/g, the HR ([1]; 10 µM, Pre-Ischemia, Pre-Drug) was 288±10 beats/min and the LVDP ([1]; 10 µM, Pre-Ischemia, Pre-Drug) was 130±5 mmHg. For the same compound, the EC25 [1] was 6.1 µM and the “reperfusion LDH release” value ([1]; at 3 and 10 µM concentrations, Figure 2C) was “significantly reduced it”.

With CN(C)CCCSc1ccccc1NC(=O)/C=C/c1ccccc1 [Cinanserin, cinanserin] the “reperfusion LDH release” value ([1]; 1-10 µM, compared to vehicle, Figure 2A) was “Significant reductions in LDH”, the EC25 [1] was 1.6 µM and the “Coronary Flow” value [2, 4] was 18 ± 1 mL/min/g. For the same compound, the HR [2, 4] was 340±11^a,b beats/min, the LVDP [2, 4] was 122±5 mmHg and the “Coronary Flow” value [2, 5] was 19 ± 1 mL/min/g. The HR [2, 5] was 297±9 beats/min, the LVDP [2, 5] was 139±7 mmHg and the “effect on the pro-ischemic effect of 5HT (time to contracture)” value ([2]; 30 µM 5HT plus antagonist, both given 10 minutes before ischemia, Figure 3) was “completely abolished this pro-ischemic effect; also recorded: abolished the pro-ischemic effect of serotonin”.

For COc1cc2nc(N3CCN(C(=O)c4ccco4)CC3)nc(N)c2cc1OC [prazosin], the “concentration from which the methoxamine-tension curve was shifted to the right” value (alpha, Adrenoceptors) was 1 nM.

For NCCc1c[nH]c2ccc(O)cc12 [5HT, serotonin], the “Coronary Flow” value ([2]; 1 μM 5HT, Post-Drug) was 16 ± 1 mL/min/g, the HR ([2]; 1 μM 5HT, Post-Drug) was 276±5 beats/min and the LVDP ([2]; 1 μM 5HT, Post-Drug) was 141±3 mmHg. For the same compound, the “Coronary Flow” value ([2]; 1 μM 5HT, Pre-Drug) was 16 ± 1 mL/min/g, the HR ([2]; 1 μM 5HT, Pre-Drug) was 273±7 beats/min and the LVDP ([2]; 1 μM 5HT, Pre-Drug) was 145±4 mmHg. For the same compound, the “Coronary Flow” value ([2]; 10 μM 5HT, Post-Drug) was 20 ± 2 mL/min/g, the HR ([2]; 10 μM 5HT, Post-Drug) was 294±11 beats/min and the LVDP ([2]; 10 μM 5HT, Post-Drug) was 132±7 mmHg. For the same compound, the “Coronary Flow” value ([2]; 10 μM 5HT, Pre-Drug) was 19 ± 2 mL/min/g, the HR ([2]; 10 μM 5HT, Pre-Drug) was 300±7 beats/min and the LVDP ([2]; 10 μM 5HT, Pre-Drug) was 135±4 mmHg. For the same compound, the “Coronary Flow” value ([2]; 30 μM 5HT, Post-Drug) was 14 ± 1 mL/min/g, the HR ([2]; 30 μM 5HT, Post-Drug) was 319±20 beats/min and the LVDP ([2]; 30 μM 5HT, Post-Drug) was 103±11 mmHg. For the same compound, the “Coronary Flow” value ([2]; 30 μM 5HT, Pre-Drug) was 16 ± 1 mL/min/g, the HR ([2]; 30 μM 5HT, Pre-Drug) was 281±15 beats/min and the LVDP ([2]; 30 μM 5HT, Pre-Drug) was 117±5 mmHg. For the same compound, the “Coronary Flow” value ([2]; 100 μM 5HT, Post-Drug) was 15 ± 3 mL/min/g, the HR ([2]; 100 μM 5HT, Post-Drug) was 369±19^a,b beats/min and the LVDP ([2]; 100 μM 5HT, Post-Drug) was 88±8^a,b mmHg. For the same compound, the “Coronary Flow” value ([2]; 100 μM 5HT, Pre-Drug) was 16 ± 2 mL/min/g, the HR ([2]; 100 μM 5HT, Pre-Drug) was 298±10 beats/min and the LVDP ([2]; 100 μM 5HT, Pre-Drug) was 121±8 mmHg. The “effect on the severity of ischemia (time to contracture)” value ([2]; 1 and 10 µM concentrations) was “without any measurable effect”, the time to contracture ([2]; at 30 and 100µM, compared to vehicle, p<0.05, Figure 3) was “significantly reduced time to contracture” and the time to contracture ([2]; at >30 µM) was “significantly decrease time to contracture”.

For N[C@@H](Cc1ccc(Cl)cc1)C(=O)O (racemic) [PCPA, parachlorophenylalanine], the “Coronary Flow” value [3, 6] was 18±2^b mL/min/g, the HR [3, 6] was 275±8^b beats/min and the LVDP [3, 6] was 60±7^a,b mmHg. The “LDH Release” value ([3]; i.p. 105 mg/kg on three consecutive days, 30 Min. Post-Ischemia (during reperfusion)) was 15±2^b u/g, the “Coronary Flow” value [3, 7] was 18 ± 1 mL/min/g and the HR [3, 7] was 271±8 beats/min. For the same compound, the LVDP [3, 7] was 128±11 mmHg, the time to contracture ([3]; listed as Parachlorophenylalanine) was “significantly increased time to contracture” and the time to contracture ([3]; listed as parachlorophenylalanine) was “significantly incareased the time to contracture”.
